Measured values reported in patent US20100317850A1 (priority 2008, published 2010).

Test system: Aβ42 production
Assay: Quantification of Aβ peptide in culture of neurons from rat fetus brain (Aβ ELISA)
Type: cell-based
Conditions: Neuron, 72 h; rat primary neuronal culture (cerebral cortex, embryonic day 18 Wistar rats); medium collected three days after addition of the compound; Aβx-42 ELISA; read-out: Aβ42 production reducing effect IC50
Outline: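 Primary cortical neurons from embryonic day 18 Wistar rats were cultured 4 days, then exposed to compound in Neurobasal/B27 without 2-ME, final DMSO ≤1%. After three days, medium was collected and Aβx-42 measured undiluted by sandwich ELISA.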

NC1=N[C@@]2(c3cc(NC(=O)c4ccc(OCC(F)(F)F)cn4)ccc3F)CCC[C@H]2CS1 (single isomer, unassigned) [Example 179, N-[3-((4aR*,7aS*)-2-amino-4a,5,6,7-tetrahydro-4H-cyclopenta[d][1,3]thiazin-7a-yl)-4-fluorophenyl]-5-(2,2,2-trifluoroethoxy)-pyridine-2-carboxamide]
IC50: 98 nM

NC1=N[C@@]2(c3cc(NC(=O)c4ncc(Cl)cc4Cl)ccc3F)CCC[C@H]2CS1 (single isomer, unassigned) [Example 180, N-[3-((4aR*,7aS*)-2-amino-4a,5,6,7-tetrahydro-4H-cyclopenta[d][1,3]thiazin-7a-yl)-4-fluorophenyl]-3,5-dichloropyridine-2-carboxamide]
IC50: 3 nM

NC1=N[C@@]2(c3cc(NC(=O)c4cnc(OCC(F)F)cn4)ccc3F)CCC[C@H]2CS1 (single isomer, unassigned) [Example 181, N-[3-((4aR*,7aS*)-2-amino-4a,5,6,7-tetrahydro-4H-cyclopenta[d][1,3]thiazin-7a-yl)-4-fluorophenyl]-5-(2,2-difluoroethoxy)-pyrazine-2-carboxamide]
IC50: 47 nM

NC1=N[C@@]2(c3cc(NC(=O)c4ccc(OCC(F)F)cn4)ccc3F)CCC[C@H]2CS1 (single isomer, unassigned) [Example 182, N-[3-((4aR*,7aS*)-2-amino-4a,5,6,7-tetrahydro-4H-cyclopenta[d][1,3]thiazin-7a-yl)-4-fluorophenyl]-5-(2,2-difluoroethoxy)-pyridine-2-carboxamide]
IC50: 90 nM

NC1=N[C@@]2(c3cc(NC(=O)c4cnc(OCCF)cn4)ccc3F)CCC[C@H]2CS1 (single isomer, unassigned) [Example 183, N-[3-((4aR*,7aS*)-2-amino-4a,5,6,7-tetrahydro-4H-cyclopenta[d][1,3]thiazin-7a-yl)-4-fluorophenyl]-5-(2-fluoroethoxy)-pyrazine-2-carboxamide]
IC50: 28 nM

NC1=N[C@@]2(c3cc(NC(=O)c4ncc(C(F)(F)F)cc4Cl)ccc3F)CCC[C@H]2CS1 (single isomer, unassigned) [Example 184, N-[3-((4aR*,7aS*)-2-amino-4a,5,6,7-tetrahydro-4H-cyclopenta[d][1,3]thiazin-7a-yl)-4-fluorophenyl]-3-chloro-5-trifluoromethyl-pyridine-2-carboxamide]
IC50: 13 nM

NC1=N[C@@]2(c3cc(NC(=O)c4ncc(Cl)cc4Cl)ccc3F)CCOC[C@H]2CS1 (single isomer, unassigned) [Example 185, N-[3-((4aS*,8aS*)-2-amino-4a,5,7,8-tetrahydro-4H-6-oxa-3-thia-1-azanaphthalen-8a-yl)-fluorophenyl]-3,5-dichloropyridine-2-carboxamide]
IC50: 10 nM

NC1=N[C@@]2(c3cc(NC(=O)c4ccc(C(F)(F)F)cn4)ccc3F)CCOC[C@H]2CS1 (single isomer, unassigned) [Example 186, N-[3-((4aS*,8aS*)-2-amino-4a,5,7,8-tetrahydro-4H-6-oxa-3-thia-1-azanaphthalen-8a-yl)-fluorophenyl]-5-trifluoromethylpyridine-2-carboxamide]
IC50: 30 nM

NC1=N[C@@]2(c3cc(NC(=O)c4ccc(F)cn4)ccc3F)CCOC[C@H]2CS1 (single isomer, unassigned) [Example 187, N-[3-((4aS*,8aS*)-2-amino-4a,5,7,8-tetrahydro-4H-6-oxa-3-thia-1-azanaphthalen-8a-yl)-4-fluorophenyl]-5-fluoropyridine-2-carboxamide]
IC50: 54 nM

NC1=N[C@@]2(c3cc(NC(=O)c4ncc(F)cc4F)ccc3F)COC[C@H]2CS1 (single isomer, unassigned) [Example 188, N-[3-((4aS*,7aS*)-2-amino-4a,5-dihydro-4H-furo[3,4-d][1,3]thiazin-7a-yl)-4-fluorophenyl]-3,5-difluoropyridine-2-carboxamide]
IC50: 22 nM

NC1=N[C@@]2(c3cc(NC(=O)c4ncc(Cl)cc4Cl)ccc3F)COC[C@H]2CS1 (single isomer, unassigned) [Example 189, N-[3-((4aS*,7aS*)-2-amino-4a,5-dihydro-4H-furo[3,4-d][1,3]thiazin-7a-yl)-4-fluorophenyl]-3,5-dichloropyridine-2-carboxamide]
IC50: 8 nM

NC1=N[C@@]2(c3cc(NC(=O)c4ccc(C(F)F)cn4)ccc3F)COC[C@H]2CS1 (single isomer, unassigned) [Example 190, N-[3-((4aS*,7aS*)-2-amino-4a,5-dihydro-4H-furo[3,4-d][1,3]thiazin-7a-yl)-4-fluorophenyl]-5-difluoromethylpyridine-2-carboxamide]
IC50: 12 nM

NC1=N[C@@]2(c3cc(NC(=O)c4cnc(C(F)F)cn4)ccc3F)CCC[C@H]2CS1 (single isomer, unassigned) [Example 191, N-[3-((4aR*,7aS*)-2-amino-4a,5,6,7-tetrahydro-4H-cyclopenta[d][1,3]thiazin-7a-yl)-4-fluorophenyl]-5-difluoromethylpyrazine-2-carboxamide]
IC50: 9 nM

NC1=N[C@@]2(c3cc(NC(=O)c4ccc(Br)cn4)ccc3F)CCCCC[C@H]2CS1 (single isomer, unassigned) [Example 249, N-[3-((4aR*,9aS*)-2-amino-4a,5,6,7,8,9-hexahydro-4H-cyclohepta[d][1,3]thiazin-9a-yl)-4-fluroophenyl]-5-bromopyridine-2-carboxamide]
IC50: 18 nM

NC1=N[C@@]2(c3cc(NC(=O)c4ccc(C(F)(F)F)cn4)ccc3F)CCCCC[C@H]2CS1 (single isomer, unassigned) [Example 250, N-[3-((4aR*,9aS*)-2-amino-4a,5,6,7,8,9-hexahydro-4H-cyclohepta[d][1,3]thiazin-9a-yl)-4-fluorophenyl]-5-trifluoromethylpyridine-2-carboxamide]
IC50: 27 nM

NC1=N[C@@]2(c3cc(NC(=O)c4ccc(F)cn4)ccc3F)CCCC[C@H]2CS1 (single isomer, unassigned) [Example 256, N-[3-((4aR*,8aS*)-2-amino-4,4a,5,6,7,8-hexahydrobenzo[d][1,3]thiazin-8a-yl)-4-fluorophenyl]-5-fluoropyridine-2-carboxamide]
IC50: 38 nM

NC1=N[C@@]2(c3cc(NC(=O)c4ncc(Cl)cc4Cl)ccc3F)CCCC[C@H]2CS1 (single isomer, unassigned) [Example 257, N-[3-((4aR*,8aS*)-2-amino-4,4a,5,6,7,8-hexahydrobenzo[d][1,3]thiazin-8a-yl)-4-fluorophenyl]-3,5-dichloropyridine-2-carboxamide]
IC50: 17 nM

COC[C@H]1C[C@]2(c3cc(NC(=O)c4cnc(OCF)cn4)ccc3F)N=C(N)SC[C@@H]2CO1 [Example 38, N-[3-((4aS,7R,8aS)-2-amino-7-methoxymethyl-4a,5,7,8-tetrahydro-4H-6-oxa-3-thia-1-azanaphthalen-8a-yl)-4-fluorophenyl]-5-fluoromethoxypyrazine-2-carboxamide]
IC50: 6 nM

COC[C@H]1C[C@]2(c3cc(NC(=O)c4ccc(C#N)cn4)ccc3F)N=C(N)SC[C@@H]2CO1 [Example 39, N-[3-((4aS,7R,8aS)-2-amino-7-methoxymethyl-4a,5,7,8-tetrahydro-4H-6-oxa-3-thia-1-azanaphthalen-8a-yl)-4-fluorophenyl]-5-cyanopyridine-2-carboxamide]
IC50: 7 nM

COC[C@H]1C[C@]2(c3cc(NC(=O)c4cnc(C(F)F)cn4)ccc3F)N=C(N)SC[C@@H]2CO1 [Example 40, N-[3-((4aS,7R,8aS)-2-amino-7-methoxymethyl-4a,5,7,8-tetrahydro-4H-6-oxa-3-thia-1-azanaphthalen-8a-yl)-4-fluorophenyl]-5-difluoromethylpyrazine-2-carboxamide]
IC50: 26 nM

NC1=N[C@@]2(c3cc(NC(=O)c4cnc(OCF)cn4)ccc3F)C[C@H](CF)OC[C@H]2CS1 [Example 41, N-[3-((4aS,7R,8aS)-2-amino-7-fluoromethyl-4a,5,7,8-tetrahydro-4H-6-oxa-3-thia-1-azanaphthalen-8a-yl)-4-fluorophenyl]-5-fluoromethoxypyrazine-2-carboxamide]
IC50: 6 nM

N#Cc1ccc(C(=O)Nc2ccc(F)c([C@]34C[C@H](CF)OC[C@H]3CSC(N)=N4)c2)nc1 [Example 42, N-[3-((4aS,7R,8aS)-2-amino-7-fluoromethyl-4a,5,7,8-tetrahydro-4H-6-oxa-3-thia-1-azanaphthalen-8a-yl)-4-fluorophenyl]-5-cyanopyridine-2-carboxamide]
IC50: 4 nM

NC1=N[C@@]2(c3cc(NC(=O)c4cnc(C(F)F)cn4)ccc3F)C[C@H](CF)OC[C@H]2CS1 [Example 43, N-[3-((4aS,7R,8aS)-2-amino-7-fluoromethyl-4a,5,7,8-tetrahydro-4H-6-oxa-3-thia-1-azanaphthalen-8a-yl)-4-fluorophenyl]-5-difluoromethylpyrazine-2-carboxamide]
IC50: 19 nM

NC1=N[C@@]2(c3cccc(-c4cccnc4F)c3)CN(C(=O)CC3CC3)C[C@H]2CS1 [Example 48]
IC50: 575 nM

COC[C@H]1OC[C@]2(c3cc(NC(=O)c4ccc(C#N)cn4)ccc3F)N=C(N)SC[C@H]12 [Example 66, N-[3-((4aS,5S,7aS)-2-amino-5-methoxymethyl-4a, 5-dihydro-4H-furo[3,4-d][1,3]thiazin-7a-yl)-4-fluorophenyl]-5-cyanopyridine-2-carboxamide]
IC50: 1.3 nM

COC[C@H]1OC[C@]2(c3cc(NC(=O)c4cnc(OC(F)F)cn4)ccc3F)N=C(N)SC[C@H]12 [Example 67, N-[3-((4aS,5S,7aS)-2-amino-5-methoxymethyl-4a,5-dihydro-4H-furo[3,4-d][1,3]thiazin-7a-yl)-4-fluorophenyl]-5-difluoromethoxy-pyrazine-2-carboxamide]
IC50: 1.4 nM

COC[C@H]1OC[C@]2(c3cc(NC(=O)c4cnc(C(F)F)cn4)ccc3F)N=C(N)SC[C@H]12 [Example 68, N-[3-((4aS,5S,7aS)-2-amino-5-methoxymethyl-4a,5-dihydro-4H-furo[3,4-d][1,3]thiazin-7a-yl)-4-fluorophenyl]-5-difluoromethylpyrazine-2-carboxamide]
IC50: 6 nM
